Data on 6 compounds can be found in patent US4612311A, “1,2,4-benzothiadiazine oxide derivatives” (Warner-Lambert Company, priority 1984, dated 1986).

Data set [1] has as its system benzodiazepine rec. Kind of data set: GABA-Ratio, benzodiazepine receptor binding. The conditions noted are these: in words.
Data set [2] in a line: Punished exploratory behavior (4 plate test), anxiolytic activity. Type of data set: in vivo, male mice (NMRI). The conditions noted are these: for Anxiolytic Activity (punished exploration), increase: 30 min before test, control = 100%. As to the method:
(§1) Experimental animals used were male mice (NMRI, origin: Ivanovas, Kissleg) of weight 18 to 25 g. The animals were allowed food and water ad lib.. but, according to the test, they were fasted for two to 16 hours before the beginning of the test with water allowed ad lib.
(§2) The substances under test were applied orally by means of a stomach tube in a 0.8% methocel suspension 30 minutes before the start of the test.
(§3) The model for testing for anxiolytic activity is based on the experimental creation of a conflict in the animals by counteracting the natural exploratory tendencies of the animals with an anxiety-inducing stimulus (aversive foot shock, aversive illumination).
The test box has a metal base consisting of four rectangles of equal size. After placing the animal in the box it can freely explore for 15 seconds. Then every transition from one metal plate of the base to another is punished by a mild foot shock (1.5 mA for 0.5 seconds). The number of tolerated foot shocks within one minute is the measure of the anxiolytic activity of the substance. The average number of accepted foot shock by the control animals was taken as 100%. Ten animals were examined per dose.

Data set [3] can be described thus: Effect on duration of hexobarbital anesthesia (hypnotic activity). Format: in vivo, male mice (NMRI). The conditions noted are these: hexobarbital sodium 70 mg/kg i.v. As to the method: as §1, §2
Seventy mg/kg (10 ml/kg body weight) of hexobarbital sodium were injected into a tail vein within a period of 15 seconds. Ten animals were used per dose. The criterion for the end of anesthesia was the moment when the animal roused itself from lying on its side. The average duration of anesthesia in the control animals was taken as 100 and the increases measured were calculated as a percentage of this value.

The next data set can be described thus: Ataxia threshold. The conditions noted are these: oral, ">": no effect up to this highest examined dosage. Format: in vivo, male mice (NMRI). As to the method:
as §1, §2

The next data set can be described thus: LD50. More on the design: species or system male mice (NMRI). The conditions noted are these: mouse, in vivo; oral; ">": no effect up to this highest examined dosage. On the procedure:
as §1, §2

Data set [4] has as its target benzodiazepine rec. Briefly: Receptor binding: benzodiazepine rec.
Data set [5] in a line: Motility test (spontaneous motility). Type of data set: in vivo, male mice (NMRI). The conditions noted are these: 30 min. On the procedure: as §1, §2
The spontaneous motility was measured simultaneously for a test group of five animals each for 30 minutes in two opaque cages (length 50 cm, width 25 cm, height 30 cm) using three infrared light barriers in each case. The sum of the impulses registered for the control group during this period was taken as 100% and the deviation in the case of the test group from this value was calculated in percent.

Data set [6] is described as follows: Unpunished exploratory behavior (light-dark preference), anxiolytic activity. The conditions noted are these: 30 min before test, control = 100%. Type of data set: in vivo, male mice (NMRI). On the procedure: as §1, §2, §3
The testing equipment consists of a larger, brightly illuminated compartment and a smaller dark compartment. The animal is placed in the dark compartment and observed for ten minutes. The number of transitions between the compartments and the time spent in the two compartments are measured. The average number of transitions between the compartments of the control animals is taken as 100%. Ten animals were tested per dose.

As to `Cc1nc2n(n1)-c1ccc(Cl)cc1S(=O)(c1ccccc1)=N2` (racemic) [Example 1a, (±)-7-Chloro-2-methyl-5-phenyl-[1,2,4]triazolo[5,1-c][1,2,4]benzothiadizine-5-oxide], the “GABA-Ratio, agonist character” value with benzodiazepine rec. [1] is given as “part. agonist”. For the same compound, in data set [2] (7.5 to 45 mg/kg, compared with diazepam 1 to 4 mg/kg), the “Anxiolytic activity (in words)” value is listed as “comparable with that of diazapam (1 to 4 mg/kg)”. Also, the “Hypnotic Activity (increase in sleep time)” value in data set [3] (25 mg/kg oral) was found to be 123%; in data set [3] (50 mg/kg oral), 175%. The “Ataxia Threshold” value in “Ataxia threshold” was greater than 100 mg/kg. Moreover, in the data set “LD50”, the median lethal dose (LD50) (commonly the dose at which mortality reaches 50%) came to 1600 mg/kg. Further, binding on benzodiazepine rec. [4] was characterised by a dissociation constant (Kd) of 1500 nM.

With `Cc1nc2n(n1)-c1ccc(Cl)cc1S(=O)(c1cccc(Cl)c1)=N2` (racemic) [Example 1c, (±)-7-Chloro-5-(3-chlorophenyl)-2-methyl-[1,2,4]triazolo[5,1-c][1,2,4]benzothiadiazine-5-oxide], in data set [2] (15 mg/kg oral), the “Anxiolytic Activity (punished exploration), increase” value turned out to be 35%. The “Hypnotic Activity (increase in sleep time)” value in data set [3] (15 mg/kg oral) worked out at 6%. Further, the “Ataxia Threshold” value in the data set “Ataxia threshold” was greater than 100 mg/kg. In addition, in “LD50”, the 50% lethal dose (LD50) is greater than 400 mg/kg. Moreover, in data set [5] (15 mg/kg oral, control = 100%), the “Spontaneous Motility, increase” value was found to be 12%. In addition, the Kd (as a rule, the constant that tells how readily two partners part at equilibrium) at benzodiazepine rec. [4] turned out to be 10000 nM.

With `Cc1nc2n(n1)-c1ccc(Cl)cc1S(=O)(c1ccccc1Cl)=N2` (racemic) [Example 2c, (±)-7-Chloro-2-methyl-5-(2-chlorophenyl)[1,2,4]triazolo[5,1-c][1,2,4]benzothiadiazine-5-oxide], the “GABA-Ratio, agonist character” value in the data set on benzodiazepine rec. [1] was “part. ago”. Further, the “Anxiolytic Activity (punished exploration), increase” value in data set [2] (30 mg/kg oral) worked out at 66%. Also, the “Hypnotic Activity (increase in sleep time)” value in data set [3] (30 mg/kg oral) is listed as 96%. In addition, the “Ataxia Threshold” value in the data set “Ataxia threshold” was greater than 100 mg/kg. In the data set “LD50”, this compound gave a 50% lethal dose (LD50) greater than 400 mg/kg. Besides, in data set [5] (30 mg/kg oral, control = 100%), the “Spontaneous Motility, increase” value was 6%. On benzodiazepine rec. [4], this compound returned a Kd of 20 nM.

For the compound `O=S1(c2ccccc2)=Nc2ncnn2-c2ccc(Cl)cc21` (racemic) [Example 4a, (±)-7-Chloro-5-phenyl-[1,2,4]triazolo[5,1-c][1,2,4]benzothiadiazine-5-oxide], the “GABA-Ratio, agonist character” value with benzodiazepine rec. [1] is on record as “part. ago”. In addition, the “Anxiolytic Activity (punished exploration), increase” value in data set [2] (15 mg/kg oral) was 45%. In data set [3] (100 mg/kg oral), the “Hypnotic Activity (increase in sleep time)” value came to 224%. Also, the “Ataxia Threshold” value in “Ataxia threshold” was greater than 100 mg/kg. In “LD50”, this compound displayed an LD50 greater than 400 mg/kg. For the same compound, the “Spontaneous Motility (effect in words)” value in data set [5] (100 mg/kg oral) is listed as “no effect”. On benzodiazepine rec. [4], the dissociation constant Kd is 3500 nM.

In the case of `O=S1(c2ccccc2)=Nc2ncnn2-c2cc(Cl)c(Br)cc21` (racemic) [Example 4b, (±)-7-Bromo-8-chloro-5-phenyl-[1,2,4]triazolo[5,1-c][1,2,4]benzothiadiazine-5-oxide], in data set [2] (12.5 mg/kg oral), the “Anxiolytic Activity (punished exploration), increase” value is listed as 34%. For the same compound, in data set [3] (25 mg/kg oral), the “Hypnotic Activity (increase in sleep time)” value was found to be 21%. In the data set “Ataxia threshold”, the “Ataxia Threshold” value is given as greater than 400 mg/kg. In “LD50”, this compound showed an LD50 greater than 400 mg/kg. The “Spontaneous Motility, increase” value in data set [5] (12.5 mg/kg oral, control = 100%) is on record as 83%. Besides, the Kd on benzodiazepine rec. [4] is 100000 nM.

Regarding `CN1C(=O)CN=C(c2ccccc2)c2cc(Cl)ccc21` [Diazepam, reference compound], the “Hypnotic Activity (increase in sleep time)” value was 286% in data set [3] (2 mg/kg oral) and 320% in data set [3] (4 mg/kg oral). Moreover, the results for the “Ataxia Threshold” value in the data set “Ataxia threshold” and in “Ataxia threshold” (listed as diazepam) were 5 mg/kg and “approximately 5 mg/kg”, respectively. Further, the “Spontaneous Motility, decrease” value in data set [5] (5 mg/kg oral, control = 100%) was 67%. Moreover, the “Anxiolytic Activity (unpunished exploration), increase” value in data set [6] (2 mg/kg oral) was found to be 43%. For the same compound, the “Anxiolytic Activity (unpunished exploration), decrease” value in data set [6] (5 mg/kg oral) turned out to be 33%. Moreover, the Kd at benzodiazepine rec. [4] is 64 nM.
